Measurements published in ChEMBL document CHEMBL1143016, “Scutiaquinones A and B, perylenequinones from the roots of Scutia myrtina with anthelmintic activity” (J Nat Prod, 2007).
In brackets after ≈: the same amount, converted by molar mass. Activity calls are given as the source filed them. The calls are words filed in the database; no cut-off is given here.

What was measured:
[1] = tested on: Heligmosomoides polygyrus; test: Anthelmintic activity against Heligmosomoides polygyrus infected Swiss-Webster mouse assessed as reduction of worm counts at 30 mg/kg, im; assay type: functional, organism-based; parameters: dose 30 mg/kg
Haemonchus contortus = test: Anthelmintic activity against Haemonchus contortus assessed as reduction in L3 larval motility; assay type: functional
Mus musculus = test: Toxicity in Swiss-Webster mouse at 50 mg/kg, im; assay type: organism-based; parameters: dose 50 mg/kg, route intramuscular; details: in vivo
[2] = tested on: Heligmosomoides polygyrus; test: Anthelmintic activity against Heligmosomoides polygyrus infected Swiss-Webster mouse assessed as reduction of worm counts at 25 mg/kg, im; assay type: functional, organism-based; parameters: dose 25 mg/kg

| Structure (SMILES) | Activity [1] | EC90 (Haemonchus contortus) | Activity (Mus musculus) | Activity [2] |
| --- | --- | --- | --- | --- |
| Cc1cc2c3c4c(c(O)c5c(=O)c(C)cc(c6c7c(c(=O)c(c1O)c26)[C@@H](C)O[C@@H](C)C7)c53)[C@@H](C)O[C@@H](C)C4 [SCUTIAQUINONE B] | inactive | 10.3 µg/mL (≈ 20.2 µM) | Toxic | – |
| Cc1cc2c3cc(C)c(O)c4c(=O)c5c(c(c6c7c(c(=O)c(c1O)c26)[C@@H](C)O[C@@H](C)C7)c43)C[C@H](C)O[C@@H]5C [SCUTIAQUINONE A] | – | 9.3 µg/mL (≈ 18.2 µM) | – | inactive |
